Assay results as given in US11498923B2 (Merck Sharp & Dohme Corp., priority 2017, dated 2022).

Target: T1, human A2a receptor (Homo sapiens, UniProt P29274)
T1 construct: purchased Perkin-Elmer RBHA2AM400UA; host or cells: HEK293 cells, used as a membrane preparation
Assay: A2a receptor competition binding assay (Scintillation Proximity)
Conditions: membranes from HEK293 cells expressing human A2a receptor; 0.5 nM tritiated ligand; Cheng-Prusoff; read-out: A2a Ki
Method in brief: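 HEK293 membranes bearing the human receptor, pretreated with adenosine deaminase, competed against 0.5 nM tritiated pyrazolotriazolopyrimidine antagonist with compound at 3000–0.15 nM final in DPBS plus 10 mM MgCl2. SPA bead readout after 1 h at room temperature; Ki from EC50 via Cheng-Prusoff.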

T1 sequence (P29274 whole entry): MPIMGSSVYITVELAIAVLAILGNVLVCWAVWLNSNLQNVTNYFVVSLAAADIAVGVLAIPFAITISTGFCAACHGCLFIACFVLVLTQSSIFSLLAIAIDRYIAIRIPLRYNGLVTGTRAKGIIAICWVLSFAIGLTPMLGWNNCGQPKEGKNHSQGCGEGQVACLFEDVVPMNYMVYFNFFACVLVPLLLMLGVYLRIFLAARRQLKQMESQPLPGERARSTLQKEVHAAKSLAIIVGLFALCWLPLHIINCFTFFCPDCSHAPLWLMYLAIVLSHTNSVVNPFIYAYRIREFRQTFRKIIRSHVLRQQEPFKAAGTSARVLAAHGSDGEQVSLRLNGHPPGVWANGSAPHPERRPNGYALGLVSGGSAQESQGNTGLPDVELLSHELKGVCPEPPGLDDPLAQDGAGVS

Compound | Ki
CC(=O)N1CCCC2(CCN(C(=O)c3cn4c(N)nc5c(F)cccc5c4n3)CC2)C1 [Ex-278, 1-(9-(5-amino-7-fluoroimidazo[1,2-c]quinazoline-2-carbonyl)-2,9-diazaspiro[5.5]undecan-2-yl)ethan-1-one] | 61 nM
CCCN1CCCC2(CCN(C(=O)c3cn4c(N)nc5c(F)cccc5c4n3)CC2)C1 [Ex-279, (5-amino-7-fluoroimidazo[1,2-c]quinazolin-2-yl)(2-propyl-2,9-diazaspiro[5.5]undecan-9-yl)methanone] | 34 nM
CCN1CCC2(CCN(C(=O)c3cn4c(N)nc5c(F)cccc5c4n3)C2)C1 (centres unmarked) [Ex-280, (5-amino-7-fluoroimidazo[1,2-c]quinazolin-2-yl)(7-ethyl-2,7-diazaspiro[4.4]nonan-2-yl)methanone] | 100 nM
Nc1nc2c(F)cccc2c2nc(C(=O)N3CCC4(CCN(CCc5ccc(F)cc5)C4)C3)cn12 (centres unmarked) [Ex-281, (5-amino-7-fluoroimidazo[1,2-c]quinazolin-2-yl)(7-(4-fluorophenethyl)-2,7-diazaspiro[4.4]nonan-2-yl)methanone] | 170 nM
Nc1nc2c(F)cccc2c2nc(C(=O)N3CCC4(CCN(C(=O)Cc5ccc(F)c(F)c5)C4)C3)cn12 (centres unmarked) [Ex-282, 1-(7-(5-amino-7-fluoroimidazo[1,2-c]quinazoline-2-carbonyl)-2,7-diazaspiro[4.4]nonan-2-yl)-2-(3,4-difluorophenyl)ethan-1-one] | 32 nM
Nc1nc2c(F)cccc2c2nc(C(=O)N3CCc4cc(CC(=O)Nc5ccccn5)ccc4C3)cn12 [Ex-283, 2-(2-(5-amino-7-fluoroimidazo[1,2-c]quinazoline-2-carbonyl)-1,2,3,4-tetrahydroisoquinolin-6-yl)-N-(pyridin-2-yl)acetamide] | 21 nM
Nc1nc2c(F)cccc2c2nc(C(=O)N3CCN4CCCC[C@@H]4C3)cn12 [Ex-284, (R)-(5-amino-7-fluoroimidazo[1,2-c]quinazolin-2-yl)(octahydro-2H-pyrido[1,2-a]pyrazin-2-yl)methanone] | 33 nM
Nc1nc2c(F)cccc2c2nc(C(=O)N3CCN4CCCC[C@H]4C3)cn12 [Ex-285, (S)-(5-amino-7-fluoroimidazo[1,2-c]quinazolin-2-yl)(octahydro-2H-pyrido[1,2-a]pyrazin-2-yl)methanone] | 40 nM
Nc1nc2c(F)cccc2c2nc(C(=O)N3CCc4cc(NC(=O)c5ccccn5)ccc4C3)cn12 [Ex-286, N-(2-(5-amino-7-fluoroimidazo[1,2-c]quinazoline-2-carbonyl)-1,2,3,4-tetrahydroisoquinolin-6-yl)picolinamide] | 19 nM
Nc1nc2c(F)cccc2c2nc(C(=O)N3CCc4cc(-c5cncnc5)ccc4C3)cn12 [Ex-287, (5-amino-7-fluoroimidazo[1,2-c]quinazolin-2-yl)(6-(pyrimidin-5-yl)-3,4-dihydroisoquinolin-2(1H)-yl)methanone] | 35 nM
CC(=O)Nc1ccc2c(c1)CCN(C(=O)c1cn3c(N)nc4c(F)cccc4c3n1)C2 [Ex-288, N-(2-(5-amino-7-fluoroimidazo[1,2-c]quinazoline-2-carbonyl)-1,2,3,4-tetrahydroisoquinolin-6-yl)acetamide] | 55 nM
Nc1nc2c(F)cccc2c2nc(C(=O)N3CCc4cc(-c5ccc(F)c(F)c5)ccc4C3)cn12 [Ex-289, (5-amino-7-fluoroimidazo[1,2-c]quinazolin-2-yl)(6-(3,4-difluorophenyl)-3,4-dihydroisoquinolin-2(1H)-yl)methanone] | 640 nM
Nc1nc2c(F)cccc2c2nc(C(=O)N3CCc4ccc(CC(=O)Nc5ccccn5)cc4C3)cn12 [Ex-290, 2-(2-(5-amino-7-fluoroimidazo[1,2-c]quinazoline-2-carbonyl)-1,2,3,4-tetrahydroisoquinolin-7-yl)-N-(pyridin-2-yl)acetamide] | 46 nM
Nc1nc2c(F)cccc2c2nc(C(=O)N3CCc4ccc(NC(=O)c5ccccn5)cc4C3)cn12 [Ex-291, N-(2-(5-amino-7-fluoroimidazo[1,2-c]quinazoline-2-carbonyl)-1,2,3,4-tetrahydroisoquinolin-7-yl)picolinamide] | 47 nM
